Data published in patent US20160090351A1, “INHIBITORS OF DEUBIQUITINATING PROTEASES” (BRANDEIS UNIVERSITY, priority 2013, published 2016).
Entries after “also recorded” stand apart in the source; their conditions may differ.

Legend:
B16/F10 cells = test: proliferation and cell cycle of B16/F10 cells; format: cell-based, mouse
Procedure: A. MCF7 cells were treated with C17 for 4 h and Mdm2 levels were measured. B. As in A, P53 measured. C. As in A, P21 measured. D. MCF7 and B16/F10 cells were treated with C17 every 24 hours. After 72 hours, the number of viable cells was measured by Alamar Blue®.
MCF7 cells were dosed every 2 hours with the indicated concentration of C15. After 6 hours, cells were lysed by freeze thaw and then sonicated in 0.5% SDS. A. Total lysates were blotted for K48-linked ubiquitin and actin. B. Normalized K48-linked ubiquitin signal was plotted as a function of concentration of C15 (N=2). C. […] Doxorubicin (Dox) is a DNA damaging agent that serves as a positive control for the induction of P53. D. Quantitation of P53 levels in C relative to actin (N=2). […] MCF7 cells were treated under the stated conditions then analyzed for cell cycle. F. DMSO treated cells. G. Cells treated with C17 (25 μM), dosed every 24 hours. H. Cells treated with C17 (50 μM), dosed every 24 hours. […] These cells were left for 72 h (single dose) after which time the total number of viable cells was analyzed using Alamar Blue®. All data are n≧4 showing mean+/−s.e.m. K. MCF7 cells were plated with C17 for 24 hours after which time the total number of viable cells was measured by Alamar Blue®. L. B16/F10 cells were treated with DMSO, C17 or P005091 for 72 h. […] After this time, cells were analyzed by flow cytometry.
All cells were grown at 37° C. in a 5% CO2 humidified atmosphere in DMEM supplemented with 10% heat inactivated FBS, 1× glutamax, and 1× penicillin/streptomycin. […] Typically clarified lysate was analyzed. […] Lysates were centrifuged (20 000 rpm, microcentrifuge, Eppendorf 5417 C) concentration was measured, then 0.1% SDS was added and lysates were sonicated for a total of 30 s (in 10 s bursts). Protein concentration was determined using Bradford assay with IgG as standard and analyzed by western blot as delineated below {[9 μg total protein for K48-linked ubiquitin (1:9000 antibody dilution), SMAD4 (1:500) or PARP (1:1000)]; [30-40 μg was loaded for K63-linked ubiquitin (1:1500), Mdm2 (1:1000) or Abl (1:1500). […]

[1] = system: USP9x, USP19, USP7/8, USP28/15; test: HA-Ub-VS activity profiling in cell lysates, USPs; format: biochemical, human
MCF7 cells [2] = system: MCF7 cells
Procedure: (§1) MCF7 cells were dosed every 2 hours with the indicated concentration of C15. After 6 hours, cells were lysed by freeze thaw and then sonicated in 0.5% SDS. […] MCF7 cells were treated under the stated conditions then analyzed for cell cycle. […] G. Cells treated with C17 (25 μM), dosed every 24 hours. H. Cells treated with C17 (50 μM), dosed every 24 hours. […] These cells were left for 72 h (single dose) after which time the total number of viable cells was analyzed using Alamar Blue®. All data are n≧4 showing mean+/−s.e.m. K. MCF7 cells were plated with C17 for 24 hours after which time the total number of viable cells was measured by Alamar Blue®.
(§2) All cells were grown at 37° C. in a 5% CO2 humidified atmosphere in DMEM supplemented with 10% heat inactivated FBS, 1× glutamax, and 1× penicillin/streptomycin. […] Proliferation assays were conducted by plating cells at 5% confluence in 96 well plates together with compound or 0.1% DMSO. Cells were allowed to grow for 72 hours (a 24 h dosing regimen was used for carbonate compounds) and then Alamar Blue® was added and number of cells was measured by fluorescence on a microplate reader.

MCF7 cells [3] = test: viability and cell cycle of MCF7 cells (Alamar Blue, FACS)
Procedure: as §1, §2

USP9x and USP7 = test: HA-Ub-VS activity profiling of lysates from treated HEK 293T cells, USPs; format: cell-based, human; conditions: 100 μM, 2 hours
Procedure: FIG. 32 depicts data showing that diphenyl carbonates inhibit DUBs in HEK 293T cells. A. Viability of HEK 293T cells assessed by the propidium iodide exclusion method: diphenyl carbonate (100 μM), bortezomib (V, 20 μM) and G5 (2 μM). N≧3, mean+/−s.d. B. HEK 293T cells were treated with the stated compounds (50 μM) for 2 h and then assayed for the accumulation of K48-linked Ub species. C. As in A, but K63-linked Ub was assayed. D. HEK 293T cells were treated with C14, C15, C17, C18 (100 μM) or DMSO for 2 hours, then harvested, lysed and treated with HA-Ub-VS. After 30 min, lysates were analyzed by SDS-PAGE and probed for HA, tubulin and actin. An intervening lane was removed for clarity. E. HEK 293T cells expressing Ub-G76V-GFP were treated with diphenyl carbonates (100 μM), bortezomib (20 μM) and G5 (2 μM). […] N>3, Mean+/−s.d. See also FIG. 39.
Lysate labeling assay on untransfected cells (1.5 mg/mL) was run with the stated concentration of inhibitor (or 1% DMSO control) for between 19-60 mins. After this time HA-Ub-VS (1.5-0.7 μM) was added and incubated for 19 mins. After this time reaction mixture (9 μL) was removed and quenched in 2× (final concentration) reducing loading buffer. […]
Lysates from HEK 293T cells treated with diphenylcarbonates were analyzed by HA-Ub-VS activity profiling to assess the selectivity of DUB inhibition in the context of a cell.

desumoylation = test: stabilization of SUMOylated proteins in lysates from HA-SUMO transfected HEK 293T cells; format: biochemical, human; conditions: G5 5 μM, C4 300 μM
Procedure: Untransfected HEK 293T cell lysates were treated with the vehicle alone (DMSO at 1%) or compound and incubated at 37° C. for 2 h. Samples were analyzed by SDS-PAGE and immunoblotting with antibody recognizing K48-linked ubiquitin. D=DMSO; G5=G5 isopeptidase inhibitor 1. A-D show titrations of different compounds (see FIG. 29B for structures). E-H Lysates were prepared from HEK 293T cells expressing HA-SUMO and treated with vehicle alone (DMSO, 1%) or compound. Samples were incubated for the appropriate time and analyzed by SDS-PAGE and immunoblotting with anti-HA antibody. Representative experiments are shown. E. Vehicle control. F. G5, 5 μM; G. C4, 300 μM. H. Quantification of blots as in E-G, N=2 average and range. I-J. Lysates were prepared from HEK 293T cells expressing HA-Ub and treated with either vehicle alone (1% DMSO) or compound at 37° C. for 3 h. Samples were analyzed by SDS-PAGE and immunoblotting with anti-HA antibody. I. A representative experiment. J. Quantitation of experiments in I (N=2 average and range shown). […]
Similar effects were observed when the endogenous K48-linked ubiquitin pool was monitored in lysates prepared from wild-type HEK 293T cells (FIG. 37A-D). Unfortunately, K63-linked ubiquitin could not be detected in these lysates. The ability of C4 to stabilize SUMOylated proteins in lysates from HA-SUMO transfected HEK 293T cells was also assessed.

Cos-1 cells = test: accumulation of K48- and K63-linked HMW-Ub in Cos-1 cells; format: cell-based, monkey
Procedure: A. Cos-1 cells were treated with C15 dosing every 2 h for 4 hours. Cells were lysed in standard lysis buffer (without detergent) and the sample was clarified prior to analysis. The accumulation of K48-linked ubiquitin was assayed by SDS-PAGE and by western blot. An intervening lane has been removed for clarity. B Lysates and pellet in A were sonicated in SDS at 4° C., centrifuged then analyzed by SDS-PAGE and by western blot. An intervening lane has been removed for clarity. C. Quantitation of blots in A. D. Quantitation of blots in B.
FIG. 39 depicts data showing the effects of diphenyl carbonates in whole cells. A. Cos-1 cells expressing GFP-Ub(G76V) were treated with the stated diphenyl carbonate (100 μM), bortezomib (B, 20 μM) or DMSO (D) for 8 h. GFP levels were quantified by flow cytometry. B. Cells from A were assessed for viability using propidium iodide dye exclusion assay. C. […] After this time GFP levels were quantified by flow cytometry. D. Cells from C were assessed for viability using propidium iodide dye exclusion. […] G. Cos-1 cells were treated with C15 for 2 hours then analyzed for K48-linked ubiquitin by western blot. […] I. Quantitation of blots in […] (N=3).
Transfected cells were harvested 1.5 days post transfection. […] Typically clarified lysate was analyzed.

`NCc1ccc(OC(=O)Oc2ccc3ccccc3c2)cc1` [Compound C17] was tested. Which cell cycle distribution (B16/F10 cells; 72 h, flow cytometry) did it give?
Its cell cycle distribution is “decrease in cells in G1 phase and an increase in G2”.

What about the proliferation (B16/F10 cells; 72 hours, dosed every 24 hours) of the same compound?
The proliferation was “inhibited proliferation in B16/F10 cells”.

What about the “HA-Ub-VS labeling without preincubation” value ([1]; C17 25 μM immediately followed by HA-Ub-VS 1.5 μM) of the same compound?
Its value is “not sufficient to inhibit the labeling of any of the DUBs”.

What about the “HA-Ub-VS labeling after preincubation and dilution” value ([1]; C17 250 μM preincubated, diluted 10-fold) of the same compound?
The value was “labeling was reduced”.

What about the “cytotoxicity after single dose, 72 h” value (MCF7 cells [2]) of the same compound?
Its value is “no cytotoxicity was observed”.

And the “decrease of cell viability” value (MCF7 cells [2])?
Its value is 50%.

And the “viability after single dose, 24 h” value (MCF7 cells [3]; Alamar Blue)?
The value was “small, but significant, decrease in viability”.

What about the G1 phase cells (MCF7 cells [3]; FACS, dosed every 24 hours) of the same compound?
The G1 phase cells was “significant increase in G1 phase cells”.

And the “HA-Ub-VS labeling of USP9x and USP7 after treatment of cells” value (USP9x and USP7)?
The value was “most potent compounds”.

For `NCc1ccc(OC(=O)Oc2cccc3ccccc23)cc1` [Compound C18], which “HA-Ub-VS labeling of USP9x and USP7 after treatment of cells” value (USP9x and USP7) is on record?
The value was “most potent compounds”.

Which inhibition of desumoylation (desumoylation) does the source give for `O=C1/C(=C/c2ccc([N+](=O)[O-])cc2)CS(=O)(=O)C/C1=C\c1ccc([N+](=O)[O-])cc1` [Compound G5, reference compound] here?
Its inhibition of desumoylation is “Neither G5 nor C4 inhibited desumoylation”.

`NCc1ccc(OC(=O)Oc2ccc(Br)cc2)cc1` [Compound C15, 4-(aminomethyl)phenyl(4-bromophenyl)carbonate] was tested. Which “increase in total K48-linked and K63-linked HMW-Ub” value (Cos-1 cells) did it give?
The value was 3-5 fold.

And the “K48-linked HMW ubiquitin, soluble versus whole cell fraction” value (Cos-1 cells; dosing every 2 h for 4 hours)?
Its value is “causes the accumulation of soluble HMW-Ub in Cos-1 cells; also recorded: only detectable in the soluble fraction”.
